Measurements: US12729377B2, “RNAi agents and compositions for inhibiting expression of angiopoietin-like 3 (ANGPTL3), and methods of use” (Arrowhead Pharmaceuticals, Inc., priority 2017, dated 2026)

Key:
[1] = test system: ANGPTL3 gene; assay: Example 9: serum LDL in cynomolgus monkeys; format: in vivo, cynomolgus macaque (Macaca fascicularis); settings: 2.0 mg/kg single SC injection day 1, cynos, n=3
Protocol: (§1) Additional ANGPTL3 RNAi agents were evaluated in cynomolgus monkeys. On day 1, cynomolgus macaque (Macaca fascicularis) primates (also referred to herein as “cynos”) were administered a single subcutaneous injection of 0.3 mL/kg (approximately 2-3 mL volume, depending on animal mass) containing 2.0 mg/kg of an ANGPTL3 RNAi agent, which included either AD05488, AD05743, AD05775, or AD05841, each formulated in saline. […] ANGPTL3 RNAi agents AD05488, AD05743, and AD05775 included nucleotide sequences designed to target position 304 of the ANGPTL3 gene. ANGPTL3 RNAi agent AD05841 included nucleotide sequences designed to target position 1035 of the ANGPTL3 gene.
(§2) Three (3) cynos in each group were tested (n=3). Blood samples were drawn and serum samples were analyzed on days −14 (predose), −7 (predose), 1 (pre-dose), 8, 15, 22, 29, and 35. Cynos were fasted overnight prior to each collection. ANGPTL3 protein levels in serum were measured by ELISA assay (R&D Systems), according to the manufacturer's recommendations. Triglycerides, total cholesterol, high-density lipoprotein (HDL), and low-density lipoprotein (LDL) in serum were measured on a Cobas® Integra 400 (Roche Diagnostics), according to the manufacturer's recommendations.
(§3) The ANGPTL3 protein levels, triglyceride levels, total cholesterol levels, HDL levels, and LDL levels for each animal were normalized. For normalization, the level of ANGPTL3 protein, triglyceride, HDL, and total cholesterol, respectively, for each animal at a time point, was divided by the average pre-treatment level of expression in that animal (in this case at days −14, −7, and 1) to determine the ratio of expression “normalized to pre-treatment.”

[2] = test system: ANGPTL3 gene; assay: Example 7: serum HDL in mice; format: in vivo; parameters: key: ratio: (level/pre-treatment day -1 level) ÷ mean of D5W control group; settings: 0.5 mg/kg single SC injection day 1, female C57bl/6 mice, n=3, ratio to D5W control
Protocol: (§4) To further assess the in vivo activity of additional ANGPTL3 RNAi agents that are designed to target position 304 on the ANGPTL3 gene, six- to eight-week-old female C57bl/6 mice were used. Pre-dose serum samples were taken at day −1 after a four hour fast. At day 1, each mouse was given a single subcutaneous administration of 200 μl containing 0.5 mg/kg (mpk) of an ANGPTL3 RNAi agent in D5W (dextrose in 5% water), or control (D5W) with no RNAi agent, according to the dosing groups recited in Table 31.
(§5) Each of the RNAi agents included a modified sequence and an N-acetyl-galactosamine-containing targeting ligand conjugated to the 5′ terminal end of the sense strand. (See Tables 3, 4, and 5 for modified sequences and targeting ligand structures). The injections were performed between the skin and muscle (i.e. subcutaneous injections) into the loose skin over the neck and shoulder area. Three (3) mice in each group were tested (n=3). Serum was collected on days 8, 15, 22, and 29. Mice were fasted for four hours prior to each collection. ANGPTL3 protein levels in serum were measured by ELISA assay (R&D Systems), according to the manufacturer's recommendations. Triglycerides, total cholesterol, high-density lipoprotein (HDL), and low-density lipoprotein (LDL) in serum were measured on a Cobas® Integra 400 (Roche Diagnostics), according to the manufacturer's recommendations.
(§6) The ANGPTL3 protein levels, triglyceride levels, total cholesterol levels, HDL levels, and LDL levels for each animal were normalized. For normalization, the level of ANGPTL3 protein, triglyceride, HDL, and total cholesterol, respectively, for each animal at a time point, was divided by the pre-treatment level of expression in that animal (in this case at day −1) to determine the ratio of expression “normalized to pre-treatment.” Expression at a specific time point was then normalized to the D5W control group by dividing the “normalized to pre-treatment” ratio for an individual animal by the mean “normalized to pretreatment” ratio of all mice in the D5W control group.

[3] = test system: ANGPTL3 protein; assay: Example 9: serum ANGPTL3 protein by ELISA in cynomolgus monkeys; format: in vivo, cynomolgus macaque (Macaca fascicularis); settings: for Average ANGPTL3 Protein Normalized to Pre-Treatment: 2.0 mg/kg single SC injection day 1, cynos, n=3
Protocol: as §1, §2, §3

[4] = test system: ANGPTL3 gene; assay: Example 7: serum triglycerides in mice; format: in vivo, C57bl/6 mice; parameters: key: ratio: (level/pre-treatment day -1 level) ÷ mean of D5W control group
Protocol: as §4, §5, §6

[5] = test system: ANGPTL3 gene; assay: Example 7: serum total cholesterol in mice; format: in vivo, C57bl/6 mice; parameters: key: ratio: (level/pre-treatment day -1 level) ÷ mean of D5W control group
Protocol: as §4, §5, §6

[6] = test system: ANGPTL3 gene; assay: Example 7: serum LDL in mice; format: in vivo; parameters: key: ratio: (level/pre-treatment day -1 level) ÷ mean of D5W control group; settings: 0.5 mg/kg single SC injection day 1, female C57bl/6 mice, n=3, ratio to D5W control
Protocol: as §4, §5, §6

[7] = test system: ANGPTL3 gene; assay: Example 9: serum total cholesterol in cynomolgus monkeys; format: in vivo, cynomolgus macaque (Macaca fascicularis); settings: 2.0 mg/kg single SC injection day 1, cynos, n=3
Protocol: as §1, §2, §3

[8] = test system: ANGPTL3 gene; assay: Example 9: serum HDL in cynomolgus monkeys; format: in vivo, cynomolgus macaque (Macaca fascicularis); settings: 2.0 mg/kg single SC injection day 1, cynos, n=3
Protocol: as §1, §2, §3

[9] = test system: ANGPTL3 protein; assay: Example 7: serum ANGPTL3 protein by ELISA in mice; format: in vivo, C57bl/6 mice; parameters: key: ratio: (level/pre-treatment day -1 level) ÷ mean of D5W control group
Protocol: as §4, §5, §6

[10] = test system: ANGPTL3 gene; assay: Example 9: serum triglycerides in cynomolgus monkeys; format: in vivo, cynomolgus macaque (Macaca fascicularis); settings: 2.0 mg/kg single SC injection day 1, cynos, n=3
Protocol: as §1, §2, §3

[11] = Day 8, 0.5 mg/kg single SC injection on day 1, n=3
[12] = Day 15, 0.5 mg/kg single SC injection on day 1, n=3
[13] = Day 22, 0.5 mg/kg single SC injection on day 1, n=3
[14] = Day 29, 0.5 mg/kg single SC injection on day 1, n=3

## AD05775: RNAi agent duplex: antisense AM07235-AS, sense AM07608-SS (antisense UACUGAUCAAAUAUGUUGAGC; sense GCUCAACAUNUUUGAUCAGUA; (NAG37)s GalNAc ligand; RNAi agent antisense strand modified sequence; RNAi agent sense strand modified sequence; modified_base 10 n = 2′-O-methyl-2-aminoadenosine-3′-phosphate)
[1]; Day 8
  Average LDL Normalized to Pre-Treatment: 1.134
[1]; Day 15
  Average LDL Normalized to Pre-Treatment: 0.909
[1]; Day 22
  Average LDL Normalized to Pre-Treatment: 1.089
[1]; Day 29
  Average LDL Normalized to Pre-Treatment: 1.034
[1]; Day 35
  Average LDL Normalized to Pre-Treatment: 1.008
[2]; Day 8
  Avg HDL, normalized to pre-treatment and control: 0.754
[2]; Day 15
  Avg HDL, normalized to pre-treatment and control: 0.757
[2]; Day 22
  Avg HDL, normalized to pre-treatment and control: 0.736
[2]; Day 29
  Avg HDL, normalized to pre-treatment and control: 1.069
[3]; Day 8
  Average ANGPTL3 Protein Normalized to Pre-Treatment: 0.463
[3]; Day 15
  Average ANGPTL3 Protein Normalized to Pre-Treatment: 0.352
[3]; Day 22
  Average ANGPTL3 Protein Normalized to Pre-Treatment: 0.330
[3]; Day 29
  Average ANGPTL3 Protein Normalized to Pre-Treatment: 0.365
[3]; Day 35
  Average ANGPTL3 Protein Normalized to Pre-Treatment: 0.379
[3]; each of the measured time points, single 2.0 mg/kg subcutaneous, cynomolgus monkeys
  reduction in ANGPTL3 protein compared to pre-treatment: reduction
[4]; [11]
  Avg TG, normalized to pre-treatment and control: 0.837
[4]; [12]
  Avg TG, normalized to pre-treatment and control: 0.610
[4]; [13]
  Avg TG, normalized to pre-treatment and control: 0.819
[4]; [14]
  Avg TG, normalized to pre-treatment and control: 0.885
[5]; [11]
  Avg Total Chol, normalized to pre-treatment and control: 0.794
[5]; [12]
  Avg Total Chol, normalized to pre-treatment and control: 0.777
[5]; [13]
  Avg Total Chol, normalized to pre-treatment and control: 0.812
[5]; [14]
  Avg Total Chol, normalized to pre-treatment and control: 1.108
[6]; Day 8
  Avg LDL, normalized to pre-treatment and control: 0.975
[6]; Day 15
  Avg LDL, normalized to pre-treatment and control: 0.918
[6]; Day 22
  Avg LDL, normalized to pre-treatment and control: 1.095
[6]; Day 29
  Avg LDL, normalized to pre-treatment and control: 1.534
[7]; Day 8
  Average Total Cholesterol Normalized to Pre-Treatment: 0.965
[7]; Day 15
  Average Total Cholesterol Normalized to Pre-Treatment: 0.811
[7]; Day 22
  Average Total Cholesterol Normalized to Pre-Treatment: 0.811
[7]; Day 29
  Average Total Cholesterol Normalized to Pre-Treatment: 0.813
[7]; Day 35
  Average Total Cholesterol Normalized to Pre-Treatment: 0.770
[8]; Day 8
  Average HDL Normalized to Pre-Treatment: 0.904
[8]; Day 15
  Average HDL Normalized to Pre-Treatment: 0.871
[8]; Day 22
  Average HDL Normalized to Pre-Treatment: 0.737
[8]; Day 29
  Average HDL Normalized to Pre-Treatment: 0.781
[8]; Day 35
  Average HDL Normalized to Pre-Treatment: 0.723
[9]; [11]
  Avg ANGPTL3, normalized to pre-treatment and control: 0.247
[9]; [12]
  Avg ANGPTL3, normalized to pre-treatment and control: 0.232
[9]; [13]
  Avg ANGPTL3, normalized to pre-treatment and control: 0.218
[9]; [14]
  Avg ANGPTL3, normalized to pre-treatment and control: 0.300
[10]; Day 8
  Average Triglycerides Normalized to Pre-Treatment: 0.466
[10]; Day 15
  Average Triglycerides Normalized to Pre-Treatment: 0.427
[10]; Day 22
  Average Triglycerides Normalized to Pre-Treatment: 0.552
[10]; Day 29
  Average Triglycerides Normalized to Pre-Treatment: 0.391
[10]; Day 35
  Average Triglycerides Normalized to Pre-Treatment: 0.431
